Experimental data taken from patent US7468375B2 (Pfizer Inc., priority 2004, dated 2008).
Read-outs that look alike come from different tables or passages of the source.

Tests used:
[1] = system: RF strain of HIV-1 in CEM-SS cells; experiment: HIV-1 cell protection assay (XTT dye reduction); assay type: cell-based
Summary of the method: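 CEM-SS cells infected with HIV-1 RF (moi 0.025–0.819) or mock-infected, 2×10^4 cells/well with half-log compound dilutions for six days. Viability by XTT/PMS reduction (4 h), absorbance 450 nm, as % of uninfected untreated cells. Therapeutic index = CC50/EC50.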

[2] = molecular target: T1, Full-length wild type HIV-1 integrase (SF1) (Human immunodeficiency virus type 1 group M subtype B, UniProt P04585); experiment: Integrase strand-transfer scintillation proximity assay; assay type: biochemical; details: 50 min at 37° C., 246 nM integrase, 50 nM host DNA
T1 construct: made in house; host or cells: E. coli BL21 (DE3)
Summary of the method: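 Recombinant full-length wild-type HIV-1 integrase (aa 1-288), E. coli-expressed, tested on biotinylated pre-processed U5 LTR viral ds-DNA with CA overhang bound to streptavidin SPA beads. [3H]-thymidine-labelled host ds-DNA serves as target; strand transfer read by scintillation proximity. A 3′ di-deoxy viral DNA control checks non-specific binding.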

[3] = Human immunodeficiency virus 1, CEM-SS, 144 h, HIV-1 RF, CEM-SS cells, XTT dye reduction, six days, read-out: EC50
[4] = strand transfer, read-out: IC50

Q: Which results are given for O=C(NO)c1cc2c(CNCc3n[nH]c4c3CCC4)cn(Cc3ccc(F)cc3F)c2cn1 [Example 99, 1-(2,4-Difluorobenzyl)-N-hydroxy-3-{[(1,4,5,6-tetrahydrocyclopenta[c]pyrazol-3-ylmethyl)amino]methyl}-1H-pyrrolo[2,3-c]pyridine-5-carboxamide]?
A: EC50 [1, 3]: 31 nM; IC50 [2, 4]: 277 nM

Q: Which EC50 [1, 3] does the source give for O=C(NO)c1cc2c(CNCCc3c[nH]c4ccccc34)cn(Cc3ccc(F)cc3F)c2cn1 [Example 67, 1-(2,4-Difluorobenzyl)-N-hydroxy-3-({[2-(1H-indol-3-yl)ethyl]amino}methyl)-1H-pyrrolo[2,3-c]pyridine-5-carboxamide] here?
A: 15 nM

Q: And the IC50 [2, 4]?
A: 283 nM

Q: What does the source list for CN(CCc1ccccn1)Cc1cn(Cc2ccc(F)cc2F)c2cnc(C(=O)NO)cc12 [Example 63, 1-(2,4-Difluorobenzyl)-N-hydroxy-3-{[methyl(2-pyridin-2-ylethyl)amino]methyl}-1H-pyrrolo[2,3-c]pyridine-5-carboxamide]?
A: EC50 [1, 3]: 16 nM; IC50 [2, 4]: 424 nM

Q: For COCc1c(C(=O)NOC)ncc2c1ccn2Cc1ccc(F)cc1F [Example 20], which EC50 [1, 3] is on record?
A: 82 nM

Q: What about the IC50 ([2]; IC50, strand transfer) of the same molecule?
A: 1540 nM

Q: For C[C@@H](OCc1cn(Cc2ccc(F)cc2)c2cnc(C(=O)N(C)O)cc12)c1ccccc1 [Example 119, 1-(4-Fluorobenzyl)-N-hydroxy-N-methyl-3-{[(1R)-1-phenylethoxy]methyl}-1H-pyrrolo[2,3-c]pyridine-5-carboxamide], which EC50 [1, 3] is on record?
A: 505 nM

Q: And the IC50 [2, 4]?
A: 39 nM

Q: What does the source list for O=C(NO)c1cc2c(CNCCCN3CCCC3=O)cn(Cc3ccc(F)cc3F)c2cn1 [Example 68, 1-(2,4-Difluorobenzyl)-N-hydroxy-3-({[3-(2-oxopyrrolidin-1-yl)propyl]amino}methyl)-1H-pyrrolo[2,3-c]pyridine-5-carboxamide]?
A: EC50 [1, 3]: 100 nM; IC50 [2, 4]: 549 nM

Q: Which results are given for O=C(NO)c1cc2ncn(Cc3ccc(F)cc3)c2cn1 [Example 21, 3-(4-Fluorobenzyl)-N-hydroxy-3H-imidazo[4,5-c]pyridine-6-carboxamide]?
A: EC50 [1, 3]: 84 nM; IC50 [2, 4]: 517 nM

Q: With O=C(NO)c1cc2c(CNCCN3CCOCC3)cn(Cc3ccc(F)cc3F)c2cn1 [Example 54] as the molecule, how does the EC50 [1, 3] read?
A: 38 nM

Q: And the IC50 [2, 4]?
A: 746 nM

Q: COCCOCc1cn(Cc2ccc(F)cc2)c2cnc(C(=O)N(C)O)cc12 [Example 108, 1-(4-Fluorobenzyl)-N-hydroxy-3-[(2-methoxyethoxy)methyl]-N-methyl-1H-pyrrolo[2,3-c]pyridine-5-carboxamide] was tested. Which EC50 ([1]; Human immunodeficiency virus 1, CEM-SS, 144 h) did it give?
A: 334 nM

Q: What about the IC50 [2, 4] of the same molecule?
A: 21.2 nM

Q: For O=C(NO)c1cc2c(CNCCO)cn(Cc3ccc(F)cc3F)c2cn1 [Example 80, 1-(2,4-Difluorobenzyl)-N-hydroxy-3-{[(2-hydroxyethyl)amino]methyl}-1H-pyrrolo[2,3-c]pyridine-5-carboxamide], which EC50 ([1]; HIV-1 RF, CEM-SS cells, XTT dye reduction, six days, read-out: EC50) is on record?
A: 10 nM

Q: What about the IC50 [2, 4] of the same molecule?
A: 530 nM

Q: Cc1cccc(CNCc2cn(Cc3ccc(F)cc3F)c3cnc(C(=O)NO)cc23)c1 [Example 79, 1-(2,4-Difluorobenzyl)-N-hydroxy-3-{[(3-methylbenzyl)amino]methyl}-1H-pyrrolo[2,3-c]pyridine-5-carboxamide] was tested. Which EC50 [1, 3] did it give?
A: 20 nM

Q: What about the IC50 [2, 4] of the same molecule?
A: 243 nM

Q: For O=C(NO)c1cc2c(CNCC3CCCO3)cn(Cc3ccc(F)cc3F)c2cn1 (stereo not shown) [Example 60, 1-(2,4-Difluorobenzyl)-N-hydroxy-3-{[(tetrahydrofuran-2-ylmethyl)amino]methyl}-1H-pyrrolo[2,3-c]pyridine-5-carboxamide], which EC50 [1, 3] is on record?
A: 12 nM

Q: What about the IC50 [2, 4] of the same molecule?
A: 521 nM

Q: What does the source list for CN(O)C(=O)c1cc2c(CN3CC[C@H]4CNC(=O)[C@H]4C3)cn(Cc3ccc(F)cc3F)c2cn1 [Example 113]?
A: EC50 [1, 3]: 437 nM; IC50 [2, 4]: 40 nM

Q: Which results are given for COCCOCc1cn(Cc2ccc(F)cc2)c2cnc(C(=O)NOC)cc12 [Example 109, 1-(4-Fluorobenzyl)-N-methoxy-3-[(2-methoxyethoxy)methyl]-1H-pyrrolo[2,3-c]pyridine-5-carboxamide]?
A: EC50 [1, 3]: 313 nM; IC50 [2, 4]: 63 nM

Q: How did the EC50 [1, 3] turn out when CN(Cc1cccnc1)Cc1cn(Cc2ccc(F)cc2F)c2cnc(C(=O)NO)cc12 [Example 8, 1-(2,4-Difluorobenzyl)-N-hydroxy-3-{[methyl(pyridin-3-ylmethyl)amino]methyl}-1H-pyrrolo[2,3-c]pyridine-5-carboxamide] was run?
A: 52 nM

Q: What about the IC50 [2, 4] of the same molecule?
A: 45 nM

Q: What does the source list for CN(C)CC(C)(C)CNCc1cn(Cc2ccc(F)cc2F)c2cnc(C(=O)NO)cc12 [Example 61, 1-(2,4-Difluorobenzyl)-3-({[3-(dimethylamino)-2,2-dimethylpropyl]amino}methyl)-N-hydroxy-1H-pyrrolo[2,3-c]pyridine-5-carboxamide]?
A: EC50 [1, 3]: 35 nM; IC50 [2, 4]: 916 nM

Q: For O=C(NO)c1cc2c(cn1)c(C(O)c1ccc(F)cc1)cn2Cc1ccc(F)cc1 (stereo not shown) [Example 31, 1-(4-Fluorobenzyl)-3-[(4-fluorophenyl)(hydroxy)methyl]-N-hydroxy-1H pyrrolo[3,2-c]pyridine-6-carboxamide], which EC50 [1, 3] is on record?
A: 14 nM

Q: And the IC50 [2, 4]?
A: 186 nM

Q: For O=C(c1cc2ccn(Cc3ccc(F)cc3)c2cn1)N(O)CCCO [Example 30, 1-(4-Fluorobenzyl)-N-hydroxy-N-(3-hydroxypropyl)-1H-pyrrolo[2,3-c]pyridine-5-carboxamide], which EC50 [1, 3] is on record?
A: 300 nM

Q: What about the IC50 [2, 4] of the same molecule?
A: 804 nM

Q: Which results are given for O=C(NO)c1cc2c(COC[C@@H](O)CO)cn(Cc3ccc(F)cc3F)c2cn1 [Example 106]?
A: EC50 [1, 3]: 66.3 nM; IC50 [2, 4]: 12 nM

Q: Which results are given for O=C(NO)c1cc2ncn(Cc3cccc(F)c3F)c2cn1 [Example 24, 3-(2,3-Difluoro-benzyl)-N-hydroxy-3H-imidazo[4,5-c]pyridine-6-carboxamide]?
A: EC50 [1, 3]: 110 nM; IC50 [2, 4]: 1040 nM

Q: NC(=O)CNCc1cn(Cc2ccc(F)cc2F)c2cnc(C(=O)NO)cc12 [Example 10, 3-{[(2-Amino-2-oxoethyl)amino]methyl}-1-(2,4-difluorobenzyl)-N-hydroxy-1H-pyrrolo[2,3-c]pyridine-5-carboxamide] was tested. Which EC50 [1, 3] did it give?
A: 18 nM

Q: What about the IC50 [2, 4] of the same molecule?
A: 84 nM

Q: O=C(NO)c1cc2c(CN[C@H](CO)Cc3ccccc3)cn(Cc3ccc(F)cc3F)c2cn1 [Example 64, 3-({[(1S)-1-Benzyl-2-hydroxyethyl]amino}methyl)-1-(2,4-difluorobenzyl)-N-hydroxy-1H-pyrrolo[2,3-c]pyridine-5-carboxamide] was tested. Which EC50 [1, 3] did it give?
A: 17 nM

Q: What about the IC50 [2, 4] of the same molecule?
A: 328 nM

Q: Which results are given for CN1CCN(Cc2cn(Cc3ccc(F)cc3)c3cnc(C(=O)N(C)O)cc23)CC1 [Example 14, 1-(4-Fluorobenzyl)-AN-hydroxy-N-methyl-3-[(4-methylpiperazin-1-yl)methyl]-1H-pyrrolo[2,3-c]pyridine-5-carboxamide]?
A: EC50 [1, 3]: 140 nM; IC50 ([2]; IC50, strand transfer): 540 nM

Q: For O=C(NO)c1cc2c(CNC3CCS(=O)(=O)C3)cn(Cc3ccc(F)cc3F)c2cn1 (stereo not shown) [Example 12, 1-(2,4-Difluorobenzyl)-3-{[(1,1-dioxidotetrahydrothien-3-yl)amino]methyl}-N-hydroxy-1H-pyrrolo[2,3-c]pyridine-5-carboxamide], which EC50 [1, 3] is on record?
A: 19 nM

Q: What about the IC50 [2, 4] of the same molecule?
A: 36 nM

Q: How did the EC50 [1, 3] turn out when CN(O)C(=O)c1cc2ncn(Cc3ccc(F)cc3)c2cn1 [Example 23, 3-(4-Fluorobenzyl)-N-hydroxy-N-methyl-3-H-imidazo[4,5-c]pyridine-6-carboxamide] was run?
A: 780 nM

Q: What about the IC50 [2, 4] of the same molecule?
A: 1300 nM

Q: How did the EC50 [1, 3] turn out when COc1ncccc1NCc1cn(Cc2ccc(F)cc2F)c2cnc(C(=O)NO)cc12 [Example 90, 1-(2,4-Difluorobenzyl)-N-hydroxy-3—[(2-methoxypyridin-3-yl)amino-methyl]-1H-pyrrolo[2,3-c]pyridine-5-carboxamide] was run?
A: 18 nM

Q: What about the IC50 [2, 4] of the same molecule?
A: 212 nM
